Experimental data as given in patent US12344614B2, “Benzodiazepine derivatives as GABA a GAMMA1 PAM” (Hoffmann-La Roche Inc., priority 2021, dated 2025).
Read-outs that look alike come from different tables or passages of the source.

Experiments:
[1] = target: h-GABA-A α2β2γ1 receptor (Homo sapiens (Human), UniProt P47869+Q8N1C3); assay: Two-electrode voltage clamp electrophysiology in Xenopus oocytes expressing GABAA receptors; type: cell-based; settings: for potentiation of the GABA-induced current: α2β2γ1 GABAA receptor subtype expressing oocytes, GABA EC20, reference PAMs
Procedure: Xenopus laevis oocytes at maturation stages V-VI were used for the expression of cloned mRNA encoding GABAA receptor subunits. Oocytes ready for RNA micro-injection were bought from Ecocyte, Castrop-Rauxel, Germany and stored in modified Barth's medium (composition in mM: NaCl 88, KCl 1, NaHCO3 2.4, HEPES 10, MgSO4 0.82, CaNO3 0.33, CaCl2 0.33, pH=7.5) at 20° C. until the experiment.
Oocytes were plated in 96-well plates for microinjection using the Roboinject automated instrument (MultiChannelSystems, Reutlingen, Germany). Approximately 50 nL of an aqueous solution containing the RNA transcripts for the subunits of the desired GABAA receptor subtype was injected into each oocyte. […] Oocytes were kept in modified Barth's medium (composition in mM: NaCl 88, KCl 1, NaHCO3 4, HEPES 10, MgSO4 0.82, CaNO3 0.33, CaCl, 0.33, pH=7.5) at 20° C. until the experiment.
Electrophysiological experiments were performed using the Roboocyte instrument (MultiChannelSystems, Reutlingen, Germany) on days 3 to 5 after the micro-injection of mRNA. During the experiment the oocytes were constantly superfused by a solution containing (in mM) NaCl 90, KCl 1, HEPES 5, MgCl2 1, CaCl2 1 (pH 7.4). Oocytes were impaled by two glass microelectrodes (resistance: 0.5-0.8 MΩ) which were filled with a solution containing KCl 1M+K-acetate 1.5 M and voltage-clamped to −80 mV. The recordings were performed at room temperature using the Roboocyte two-electrode voltage clamp system (Multichannelsystem). After an initial equilibration period of 1.5 min GABA was added for 1.5 min at a concentration evoking approximately 20% of a maximal current response (EC2O). After another rest interval of 2.5 min GABA was again added evoking a response of similar amplitude and shape. […] Current traces were recorded at a digitization rate of 10 Hz during and shortly before and after the GABA application.
Each compound and concentration was tested on at least 3 oocytes. Different oocytes were used for different compound concentrations.
For the analysis, the digitized current traces of the first and second GABA response were superimposed and, if necessary, rescaled to equal maximal amplitudes. The ratio between the two responses during the time interval of test compound application was calculated point by point. The extremum of the resulting “ratio trace” was taken as the efficacy (“Fold increase”) of the compound expressed as “% modulation of GABA EC20” (100*(Fold increase−1)).

[2] = target: human GABAA α1β3γ2 receptor (Homo sapiens (Human), UniProt P14867+P18507); assay: Radioligand binding assay, competition for [3H]Flumazenil, HEK293F cells; settings: for LogSel: Log[Ki α1β3γ2 (nM)/Ki α2β2γ1 (nM)]; for γ2/γ1 Selectivity Ratio: Ki α1β3γ2 (nM)/Ki α2β2γ1 (nM)
Procedure: The affinity of compounds at GABAA γ2 subunit-containing receptors was measured by competition for [^3H]Flumazenil (81.1 Ci/mmol; Roche) binding to HEK293F cells expressing human (transiently transfected) receptors of composition α1β3γ2.
Harvested pellets from HEK293F cells expressing the different GABAA γ2 receptor subtypes were resuspended in Mannitol Buffer pH 7.2-7.4 and processed as described above for the cells expressing the GABAA γ1 subunit-containing receptors.
Assays were incubated to equilibrium for 1 hour at 4° C. and harvested onto GF/C uni-filters (Packard) by filtration using a Packard harvester and washing with ice-cold wash buffer (50 mM Tris; pH 7.5). After anhydrousing, filter-retained radioactivity was detected by liquid scintillation counting. Ki values were calculated using Excel-Fit (Microsoft) and are the means of two determinations.

[3] = target: human GABAA α2β2γ1 receptor (Homo sapiens (Human), UniProt P47869+Q8N1C3); assay: Radioligand binding assay, competition for [3H]RO7239181, membranes from HEK293F cells
Procedure: (§1) The affinity of compounds at GABAA γ1 subunit-containing receptors was measured by competition for [^3H]RO7239181 (67.3 Ci/mmol; Roche) binding to membranes from HEK293F cells (ThermoFisher R79007) expressing human (transiently transfected) receptors of composition α5β2γ1, α2β2γ1, α1β2γ1.
(§2) Harvested pellets from HEK293F cells expressing the different GABAA receptor subtypes were resuspended in Mannitol Buffer pH 7.2-7.4 (Mannitol 0.29M, Triethylamine 10 mM, Acetic acid 10 mM, EDTA 1 mM plus protease inhibitors (20 tablets Complete, Roche Diagnostics Cat. No. 05 056 489 001 per liter)), washed two times and then resuspended at 1:10 to 1:15 dilution in the same buffer. Cell disruption was performed by stirring the suspension in a Parr vessel #4637 at 435 psi for 15 minutes, and then the suspensions were centrifuged at 1000×g for 15 minutes at 4° C. (Beckman Avanti J-HC; rotor JS-4.2). The supernatant (S1) was transferred in a 21 Schott flask and the pellet (P1) was resuspended with Mannitol Buffer up to 175 ml. The resuspended pellet was transferred into a 250 ml Corning centrifugal beaker and centrifuged at 1500×g for 10 minutes at 4° C. (Beckman Avanti J-HC; rotor JS-4.2). The supernatant (S1) was then transferred in the 21 Schott flask and the pellet was discarded. The supernatants (S1) were centrifuged in 500 ml Beckman polypropylene centrifugal beaker at 15′000×g for 30 minutes at 4° C. (Beckman Avanti J-20 XP; rotor JLA-10.500). The pellet (P2) was resuspended with Mannitol Buffer 1:1 and frozen at −80° C. The supernatant (S2) was centrifuged in 100 ml Beckman polypropylene centrifugal tubes at 48000×g for 50 minutes at 4° C. (Beckman Avanti J-20 XP; rotor JA-18). The supernatant (S3) was discarded and the pellet (P3) was resuspended with 1:1 Mannitol Buffer. The P2 and P3 protein concentration was determined with the BIORAD Standard assay method with bovine serum albumin as standard and measured on the NANO-Drop 1000. The membrane suspension was aliquots (500 μl per tube) and stored at −80° C. until required.
(§3) Membrane homogenates were resuspended and polytronised (Polytron PT1200E Kinematica AG) in Potassium Phosphate 10 mM, KCl 100 mM binding buffer at pH 7.4 to a final assay concentration determined with a previous experiment.
(§4) Assays were incubated to equilibrium for 1 hour at 4° C. and then, membranes were filtered onto unifilter (96-well white microplate with bonded GF/C filters preincubated 20-50 minutes in 0.3% Polyethylenimine) with a Filtermate 196 harvester (Packard BioScience) and washed 4 times with cold Potassium Phosphate 10 mM pH 7.4, KCl 100 mM binding buffer. After anhydrousing, filter-retained radioactivity was detected by liquid scintillation counting. Ki values were calculated using Excel-Fit (Microsoft) and are the means of two determinations.

[4] = target: human GABAA α5β2γ1 receptor (Homo sapiens (Human), UniProt P31644+Q8N1C3); assay: as above
Procedure: as §1, with “α1β2γ1. For better protein expression of the α2 subunit-containing receptors, the 28 amino acid long signal peptide (Met1 to Ala28) of the human GABAA α2 subunit was substituted by the 31 amino acid long signal peptide (Met1 to Ser31) of human GABAA α5 subunit.” for “α1β2γ1.”
as §2, §3
as §4, with “Radioligand binding assays were carried out in a volume of 200 μL (96-well plates) which contained 100 μL of cell membranes, [^3H]RO7239181 at a concentration of 1.5 nM (α5β2γ1) or 20-30 nM (α1β2γ1, α2β2γ1) and the test compound in the range of [0.3-10000]×10^−9 M. Nonspecific binding was defined by 10×10^−6 (α5β2γ1) and 30×10^−6 M RO7239181 and typically represented less than 5% (α5β2γ1) and less than 20% (α1β2γ1, α2β2γ1) of the total binding. Assays” for “Assays”
Representative test results, obtained by the above described assay measuring binding affinity to HEK293 cells expressing human (h) receptors, are shown in the Table 1.

[5] = read-out: Ki h-GABAA α2β2γ1, [3H]RO7239181 20-30 nM, HEK293F membranes, 1 hour at 4° C., mean of two determinations

Row | Structure (SMILES) | LogSel [2] | Ki [3] [nM] | Ki [2] [nM] | γ2/γ1 Selectivity Ratio [2] | Ki [3, 5] [nM] | Ki [4] [nM] | also measured
1 | Cc1nnc2n1-c1ccc(Cl)cc1C(c1ccccc1Cl)=NC2 [Triazolam, reference compound] | −1.5 |  |  |  |  |  | potentiation of the GABA-induced current [1]: ~60%
2 | CN1C(=O)CN=C(c2cc(O)ccc2F)c2cc(Cl)ccc21 [RE-B, 7-chloro-5-(2-fluoro-5-hydroxy-phenyl)-1-methyl-3H-1,4-benzodiazepin-2-one, reference compound] | −0.24 | 1.9 | 1.1 | 0.58 |  |  | 
3 | CN1C(=O)CN=C(c2ccccc2F)c2cc([N+](=O)[O-])ccc21 [Flunitrazepam, reference compound] |  |  |  |  |  |  | potentiation of the GABA-induced current [1]: ~60%
4 | Cc1nnc2n1-c1ccc(Cl)c(Cl)c1C(c1c(F)ccc(O)c1F)=N[C@H]2C [Example 19, 2,4-difluoro-3-[(4S)-7,8-dichloro-1,4-dimethyl-4H-[1,2,4]triazolo[4,3-a][1,4]benzodiazepin-6-yl]phenol] | 1.02 | 3.12 | 33 | 10.6 | 3.12 | 2.12 | 
5 | Cc1cn2c(n1)[C@H](C)N=C(c1nc(O)ccc1Cl)c1c-2ccc(C(F)(F)F)c1Cl [Example 27, 5-chloro-6-[(4S)-7-chloro-2,4-dimethyl-8-(trifluoromethyl)-4H-imidazo[1,2-a][1,4]benzodiazepin-6-yl]pyridin-2-ol] | 2.83 | 5.22 | 3550 | 679.2 | 5.22 | 2.8 | 
6 | C[C@@H]1N=C(c2nc(O)ccc2F)c2c(ccc(C(F)(F)F)c2Cl)-n2nc(C(=O)N3CC(F)C3)nc21 [Example 21, [(4S)-7-chloro-6-(3-fluoro-6-hydroxy-2-pyridyl)-4-methyl-8-(trifluoromethyl)-4H-[1,2,4]triazolo[1,5-a][1,4]benzodiazepin-2-yl]-(3-fluoroazetidin-1-yl)methanone] |  | 11.8 |  |  |  |  | Efficacy (GABA) % ([1]; % modulation of GABA EC20 = 100*(Fold increase−1), compound at 30-fold Ki α2β2γ1): 73%; Ki ([2]; read-out: Ki h-GABAA α1β3γ2, [3H]Flumazenil 1 nM, HEK293F membranes, 1 hour at 4° C., mean of two determinations): > 30000 nM; Ki ([4]; read-out: Ki h-GABAA α5β2γ1, [3H]RO7239181 […], HEK293F membranes, 1 hour at 4° C., mean of two determinations): 5.51 nM
7 | Cc1nnc2n1-c1ccc(Cl)cc1C(c1ccccc1)=NC2 [Alprazolam, reference compound] | −2.3 |  |  |  |  |  | 
8 | Cc1ncc2n1-c1ccc(Cl)cc1C(c1ccccc1F)=NC2 [Midazolam, reference compound] | −2.2 |  |  |  |  |  | potentiation of the GABA-induced current [1]: ~60%
9 | C[C@@H]1N=C(c2nc(O)ccc2F)c2c(ccc(C(F)(F)F)c2Cl)-n2cc(C(=O)NC3CC3)nc21 [Example 31, (4S)-7-chloro-N-cyclopropyl-6-(3-fluoro-6-hydroxy-2-pyridyl)-4-methyl-8-(trifluoromethyl)-4H-imidazo[1,2-a][1,4]benzodiazepine-2-carboxamide] | 2.90 | 15.6 | 12500 | 800.9 | 15.6 | 4.4 | 
10 | Clc1ccc2c(c1)C(c1ccccc1)=NCc1nncn1-2 [Estazolam, reference compound] | −2.0 |  |  |  |  |  | 
11 | CC(C)NC(=O)c1cn2c(n1)[C@H](C)N=C(c1nc(O)ccc1F)c1c-2ccc(C(F)(F)F)c1Cl [Example 32, (4S)-7-chloro-6-(3-fluoro-6-hydroxy-2-pyridyl)-N-isopropyl-4-methyl-8-(trifluoromethyl)-4H-imidazo[1,2-a][1,4]benzodiazepine-2-carboxamide] | 2.90 | 10.8 | 8600 | 796.0 | 10.8 | 4.7 | 
12 | CN1C(=O)CN=C(c2cc(O)ccc2Cl)c2cc(Cl)ccc21 [RE-A, 7-chloro-5-(2-chloro-5-hydroxy-phenyl)-1-methyl-3H-1,4-benzodiazepin-2-one, reference compound] | −0.27 |  |  |  |  |  | Ki ([3]; [3H]RO7239181 20-30 nM, HEK293F membranes, 1 hour at 4° C., mean of two determinations, read-out: Ki h-GABAA α2β2γ1): 2.8 nM
